# Source: ChEMBL document CHEMBL1201861, “Genomics of Drug Sensitity in Cancer screening data, Wellcome Trust Sanger Institute”
# Experiments:
# Experiment in all cases: cells
# U-118-MG = type: functional, cell-based, Homo sapiens; conditions: Homo sapiens, U-118-MG
# Description: SANGER: Inhibition of human U-118-MG cell growth in a cell viability assay.
# SK-MEL3 = type: functional, cell-based, Homo sapiens, SK-MEL-3; conditions: Homo sapiens, SK-MEL3;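 also: growth inhibition of human SK-MEL-3 cells, read out with a cell viability assay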
# Description: SANGER: Inhibition of human SK-MEL-3 cell growth in a cell viability assay.
# SW1417 = type: functional, cell-based, Homo sapiens; conditions: Homo sapiens, SW1417;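 also: growth inhibition of human SW1417 cells, read out with a cell viability assay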
# Description: SANGER: Inhibition of human SW1417 cell growth in a cell viability assay.
# NCI-H358 = type: functional, cell-based, Homo sapiens; conditions: Homo sapiens, NCI-H358;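 also: growth inhibition of NCI-H358 human cells, read out with a cell viability assay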
# Description: SANGER: Inhibition of human NCI-H358 cell growth in a cell viability assay.
# ABC-1 = type: functional, cell-based, Homo sapiens; conditions: Homo sapiens, ABC-1;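 also: growth inhibition of human ABC-1 cells, read out by a cell viability assay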
# Description: SANGER: Inhibition of human ABC-1 cell growth in a cell viability assay.
# MLMA = type: functional, cell-based, Homo sapiens; conditions: Homo sapiens, MLMA;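 also: growth inhibition of MLMA cells (human), determined through a cell viability readout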
# Description: SANGER: Inhibition of human MLMA cell growth in a cell viability assay.
# NCI-H23 = type: functional, cell-based, Homo sapiens; conditions: Homo sapiens, NCI-H23;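 also: cell viability assay measuring growth inhibition of NCI-H23 cells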
# Description: SANGER: Inhibition of human NCI-H23 cell growth in a cell viability assay.
# NB6 = type: functional, cell-based, Homo sapiens; conditions: Homo sapiens, NB6
# Description: SANGER: Inhibition of human NB6 cell growth in a cell viability assay.
# SK-N-FI = type: functional, cell-based, Homo sapiens; conditions: Homo sapiens, SK-N-FI;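 also: cell viability assay measuring growth inhibition of human SK-N-FI cells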
# Description: SANGER: Inhibition of human SK-N-FI cell growth in a cell viability assay.
# HDLM-2 = type: functional, cell-based; conditions: Homo sapiens;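 also: cell viability assay measuring suppression of HDLM-2 proliferation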
# Description: SANGER: Inhibition of human HDLM-2 cell growth in a cell viability assay.
# CCRF-CEM = type: functional, cell-based; conditions: Homo sapiens;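 also: inhibition of CCRF-CEM cell growth, measured by a cell viability assay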
# Description: SANGER: Inhibition of human CCRF-CEM cell growth in a cell viability assay.
# SW1463 = type: functional, cell-based, Homo sapiens; conditions: Homo sapiens, SW1463;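 also: growth inhibition of SW1463 cells, determined with a cell viability assay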
# Description: SANGER: Inhibition of human SW1463 cell growth in a cell viability assay.
# SNU-387 = type: functional, cell-based, Homo sapiens; conditions: Homo sapiens, SNU-387
# Description: SANGER: Inhibition of human SNU-387 cell growth in a cell viability assay.
# OVCAR-8 = type: functional, cell-based, Homo sapiens; conditions: Homo sapiens, OVCAR-8;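 also: growth inhibition of human OVCAR-8 cells, read out by a cell viability assay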
# Description: SANGER: Inhibition of human OVCAR-8 cell growth in a cell viability assay.
# NCI-H209 = type: functional, cell-based; conditions: Homo sapiens;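 also: growth inhibition of human NCI-H209 cells, measured by a cell viability assay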
# Description: SANGER: Inhibition of human NCI-H209 cell growth in a cell viability assay.
# U2OS = type: functional, cell-based, Homo sapiens, U-2-OS; conditions: Homo sapiens, U2OS;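 also: growth inhibition of human U-2-OS cells, determined with a cell viability assay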
# Description: SANGER: Inhibition of human U-2-OS cell growth in a cell viability assay.
# KYSE-180 = type: functional, cell-based, Homo sapiens; conditions: Homo sapiens, KYSE-180;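 also: growth inhibition of KYSE-180 cells, read out with a cell viability assay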
# Description: SANGER: Inhibition of human KYSE-180 cell growth in a cell viability assay.
# TE-10 = type: functional, cell-based, Homo sapiens; conditions: Homo sapiens, TE-10;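 also: growth inhibition of TE-10 cells, measured by a cell viability assay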
# NCI-H1355 = type: functional, cell-based, Homo sapiens; conditions: Homo sapiens, NCI-H1355;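 also: growth inhibition of human NCI-H1355 cells, read out by a cell viability assay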
# Description: SANGER: Inhibition of human NCI-H1355 cell growth in a cell viability assay.
# TE-5 = type: functional, cell-based, Homo sapiens; conditions: Homo sapiens, TE-5;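 also: inhibition of cell growth, read out by a cell viability assay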
# Description: SANGER: Inhibition of human TE-5 cell growth in a cell viability assay.
# GAMG = type: functional, cell-based, Homo sapiens; conditions: Homo sapiens, GAMG;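 also: cell growth inhibition measured by a viability assay in the GAMG human cell line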
# Description: SANGER: Inhibition of human GAMG cell growth in a cell viability assay.
# IST-MES1 = type: functional, cell-based, Homo sapiens; conditions: Homo sapiens, IST-MES1;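 also: growth inhibition of IST-MES1 cells, measured with a cell viability assay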
# Description: SANGER: Inhibition of human IST-MES1 cell growth in a cell viability assay.
# CAL-27 = type: functional, cell-based, Homo sapiens; conditions: Homo sapiens, CAL-27;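 also: Viability-based readout, IC50 reflecting inhibition of CAL-27 cell growth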
# Description: SANGER: Inhibition of human CAL-27 cell growth in a cell viability assay.
# UACC-257 = type: functional, cell-based, Homo sapiens; conditions: Homo sapiens, UACC-257
# Description: SANGER: Inhibition of human UACC-257 cell growth in a cell viability assay.
# BHY = type: functional, cell-based, Homo sapiens; conditions: Homo sapiens, BHY;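 also: cell growth inhibition read out by a viability assay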
# RPMI-8866 = type: functional, cell-based; conditions: Homo sapiens
# Description: SANGER: Inhibition of human RPMI-8866 cell growth in a cell viability assay.
# QIMR-WIL = type: functional, cell-based; conditions: Homo sapiens;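 also: growth inhibition of QIMR-WIL cells, read out with a cell viability assay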
# Description: SANGER: Inhibition of human QIMR-WIL cell growth in a cell viability assay.
# IST-MEL1 = type: functional, cell-based, Homo sapiens; conditions: Homo sapiens, IST-MEL1;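 also: growth inhibition of the cell line, read out with a cell viability assay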
# Description: SANGER: Inhibition of human IST-MEL1 cell growth in a cell viability assay.
# NCI-H1651 = type: functional, cell-based, Homo sapiens; conditions: Homo sapiens, NCI-H1651;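 also: Read-out is a cell viability assay, with IC50 expressing inhibition of NCI-H1651 cell growth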
# Description: SANGER: Inhibition of human NCI-H1651 cell growth in a cell viability assay.
# HuP-T4 = type: functional, cell-based, Homo sapiens; conditions: Homo sapiens, HuP-T4;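 also: cell viability assay measuring how much HuP-T4 cell growth is inhibited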
# Description: SANGER: Inhibition of human HuP-T4 cell growth in a cell viability assay.
# MCF7 = type: functional, cell-based, Homo sapiens; conditions: Homo sapiens, MCF7;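 also: growth inhibition of human MCF7 cells, read out with a cell viability assay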
# Description: SANGER: Inhibition of human MCF7 cell growth in a cell viability assay.
# COR-L23 = type: functional, cell-based, Homo sapiens; conditions: Homo sapiens, COR-L23;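 also: cell viability assay measuring how strongly compounds suppress growth of COR-L23 cells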
# Description: SANGER: Inhibition of human COR-L23 cell growth in a cell viability assay.
# COR-L105 = type: functional, cell-based, Homo sapiens; conditions: Homo sapiens, COR-L105;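 also: cell growth inhibition determined with a viability assay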
# Description: SANGER: Inhibition of human COR-L105 cell growth in a cell viability assay.
# COR-L88 = type: functional, cell-based; conditions: Homo sapiens;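 also: growth inhibition of COR-L88 cells, read out with a cell viability assay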
# Description: SANGER: Inhibition of human COR-L88 cell growth in a cell viability assay.
# M059J = type: functional, cell-based, Homo sapiens; conditions: Homo sapiens, M059J;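 also: growth inhibition of M059J cells, read out with a cell viability assay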
# Description: SANGER: Inhibition of human M059J cell growth in a cell viability assay.
# COLO-668 = type: functional, cell-based, Homo sapiens; conditions: Homo sapiens, COLO-668
# Description: SANGER: Inhibition of human COLO-668 cell growth in a cell viability assay.
# MFM-223 = type: functional, cell-based, Homo sapiens; conditions: Homo sapiens, MFM-223
# Description: SANGER: Inhibition of human MFM-223 cell growth in a cell viability assay.
# EW-24 = type: functional, cell-based; conditions: Homo sapiens;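 also: human EW-24 cancer cell line, growth inhibition read out via a cell viability assay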
# Description: SANGER: Inhibition of human EW-24 cell growth in a cell viability assay.
# EFO-27 = type: functional, cell-based, Homo sapiens; conditions: Homo sapiens, EFO-27;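 also: growth inhibition of EFO-27 cells, read out with a cell viability assay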
# Description: SANGER: Inhibition of human EFO-27 cell growth in a cell viability assay.
# EW-1 = type: functional, cell-based, Homo sapiens; conditions: Homo sapiens, EW-1
# Description: SANGER: Inhibition of human EW-1 cell growth in a cell viability assay.
# A 172 = type: functional, cell-based, Homo sapiens; conditions: Homo sapiens, A 172;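 also: growth inhibition of A172 cells, measured with a cell viability readout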
# BFTC-905 = type: functional, cell-based, Homo sapiens; conditions: Homo sapiens, BFTC-905
# Description: SANGER: Inhibition of human BFTC-905 cell growth in a cell viability assay.
# LNCaP-Clone-FGC = type: functional, cell-based, Homo sapiens; conditions: Homo sapiens, LNCaP-Clone-FGC
# Description: SANGER: Inhibition of human LNCaP-Clone-FGC cell growth in a cell viability assay.
# SCC-25 = type: functional, cell-based, Homo sapiens; conditions: Homo sapiens, SCC-25;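 also: growth inhibition of SCC-25 cells, measured with a cell viability assay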
# HuP-T3 = type: functional, cell-based, Homo sapiens; conditions: Homo sapiens, HuP-T3;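 also: HuP-T3 cell growth inhibition, read out with a cell viability assay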
# Description: SANGER: Inhibition of human HuP-T3 cell growth in a cell viability assay.
# CAPAN-1 = type: functional, cell-based, Homo sapiens; conditions: Homo sapiens, CAPAN-1;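 also: growth suppression of CAPAN-1 cells, read out by a cell viability assay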
# Description: SANGER: Inhibition of human CAPAN-1 cell growth in a cell viability assay.
# GMS-10 = type: functional, cell-based, Homo sapiens; conditions: Homo sapiens, GMS-10;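 also: growth inhibition of GMS-10 cells, read out as cell viability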
# Description: SANGER: Inhibition of human GMS-10 cell growth in a cell viability assay.
# EW-18 = type: functional, cell-based; conditions: Homo sapiens;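 also: growth inhibition of EW-18 cells, read out by a cell viability assay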
# Description: SANGER: Inhibition of human EW-18 cell growth in a cell viability assay.
# NCI-H1304 = type: functional, cell-based; conditions: Homo sapiens;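 also: growth inhibition of the cancer cell line, measured in a cell viability assay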
# Description: SANGER: Inhibition of human NCI-H1304 cell growth in a cell viability assay.
# NB69 = type: functional, cell-based, Homo sapiens; conditions: Homo sapiens, NB69;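 also: growth inhibition of NB69 cells, determined by a cell viability assay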
# Description: SANGER: Inhibition of human NB69 cell growth in a cell viability assay.
structure (smiles),measurement,setting,value
Cc1ccc(Nc2nccc(N(C)c3ccc4c(C)n(C)nc4c3)n2)cc1S(N)(=O)=O [PAZOPANIB],IC50,U-118-MG,> 8000 nM
same,IC50,SK-MEL3,> 8000 nM
same,IC50,SW1417,> 8000 nM
same,IC50,NCI-H358,> 8000 nM
same,IC50,ABC-1,> 8000 nM
same,IC50,MLMA,> 8000 nM
same,IC50,NCI-H23,> 8000 nM
same,IC50,NB6,> 8000 nM
same,IC50,SK-N-FI,> 8000 nM
same,IC50,HDLM-2,> 8000 nM
same,IC50,CCRF-CEM,> 8000 nM
same,IC50,SW1463,> 8000 nM
same,IC50,SNU-387,> 8000 nM
same,IC50,OVCAR-8,> 8000 nM
same,IC50,NCI-H209,> 8000 nM
same,IC50,U2OS,> 8000 nM
same,IC50,KYSE-180,> 8000 nM
same,IC50,TE-10,> 8000 nM
same,IC50,NCI-H1355,> 8000 nM
same,IC50,TE-5,> 8000 nM
same,IC50,GAMG,6180 nM
same,IC50,IST-MES1,> 8000 nM
same,IC50,CAL-27,> 8000 nM
same,IC50,UACC-257,> 8000 nM
same,IC50,BHY,> 8000 nM
same,IC50,RPMI-8866,> 8000 nM
same,IC50,QIMR-WIL,> 8000 nM
same,IC50,IST-MEL1,> 8000 nM
same,IC50,NCI-H1651,> 8000 nM
same,IC50,HuP-T4,> 8000 nM
same,IC50,MCF7,> 8000 nM
same,IC50,COR-L23,> 8000 nM
same,IC50,COR-L105,> 8000 nM
same,IC50,COR-L88,> 8000 nM
same,IC50,M059J,> 8000 nM
same,IC50,COLO-668,> 8000 nM
same,IC50,MFM-223,> 8000 nM
same,IC50,EW-24,> 8000 nM
same,IC50,EFO-27,> 8000 nM
same,IC50,EW-1,> 8000 nM
same,IC50,A 172,3740 nM
same,IC50,BFTC-905,> 8000 nM
same,IC50,LNCaP-Clone-FGC,> 8000 nM
same,IC50,SCC-25,> 8000 nM
same,IC50,HuP-T3,> 8000 nM
same,IC50,CAPAN-1,> 8000 nM
same,IC50,GMS-10,> 8000 nM
same,IC50,EW-18,> 8000 nM
same,IC50,NCI-H1304,> 8000 nM
same,IC50,NB69,> 8000 nM
CN(c1ncccc1CNc1nc(Nc2ccc3c(c2)CC(=O)N3)ncc1C(F)(F)F)S(C)(=O)=O [PF-00562271],IC50,U-118-MG,> 2560 nM
same,IC50,SK-MEL3,> 2560 nM
same,IC50,SW1417,> 2560 nM
same,IC50,NCI-H358,> 2560 nM
same,IC50,ABC-1,2250 nM
same,IC50,MLMA,> 2560 nM
same,IC50,NCI-H23,> 2560 nM
same,IC50,NB6,> 2560 nM
same,IC50,SK-N-FI,> 2560 nM
same,IC50,HDLM-2,> 2560 nM
same,IC50,CCRF-CEM,> 2560 nM
same,IC50,SW1463,> 2560 nM
same,IC50,SNU-387,2530 nM
same,IC50,OVCAR-8,> 2560 nM
same,IC50,NCI-H209,> 2560 nM
same,IC50,U2OS,> 2560 nM
same,IC50,KYSE-180,2290 nM
same,IC50,TE-10,> 2560 nM
same,IC50,NCI-H1355,> 2560 nM
same,IC50,TE-5,> 2560 nM
same,IC50,GAMG,> 2560 nM
same,IC50,IST-MES1,> 2560 nM
same,IC50,CAL-27,> 2560 nM
same,IC50,UACC-257,> 2560 nM
same,IC50,BHY,1660 nM
same,IC50,RPMI-8866,> 2560 nM
same,IC50,QIMR-WIL,> 2560 nM
same,IC50,IST-MEL1,> 2560 nM
same,IC50,NCI-H1651,> 2560 nM
same,IC50,HuP-T4,> 2560 nM
same,IC50,MCF7,> 2560 nM
same,IC50,COR-L23,> 2560 nM
same,IC50,COR-L105,> 2560 nM
same,IC50,COR-L88,> 2560 nM
same,IC50,M059J,> 2560 nM
same,IC50,COLO-668,> 2560 nM
same,IC50,MFM-223,> 2560 nM
same,IC50,EW-24,> 2560 nM
same,IC50,EFO-27,2520 nM
same,IC50,EW-1,> 2560 nM
same,IC50,A 172,> 2560 nM
same,IC50,BFTC-905,> 2560 nM
same,IC50,LNCaP-Clone-FGC,> 2560 nM
same,IC50,SCC-25,> 2560 nM
same,IC50,HuP-T3,> 2560 nM
same,IC50,CAPAN-1,> 2560 nM
same,IC50,GMS-10,> 2560 nM
same,IC50,EW-18,> 2560 nM
same,IC50,NCI-H1304,> 2560 nM
same,IC50,NB69,> 2560 nM
